Source: US20230295201A1 (Gilead Sciences, Inc., priority 2020, published 2023)
Like-named read-outs stand apart in the source and are kept apart here.

How the values were obtained:
Assay type in all cases: cell-based
DENV2 replicon = assay: DENV-2 Huh-7 Rep EC50 (replicon luminescence); conditions: Dengue virus, DENV2, Huh-7, 48 h, read-out: DENV-2 Huh-7 Rep EC50
Summary of the method: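 EC50 derived from luminescence dose-response, normalised to DMSO-only 0% inhibition wells, after 1.5 h with EnduRen substrate. Compounds were first exposed for 48 h at 37° C to DENV2 replicon Huh-7 cells (5,000/well).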

RSV A2 = assay: RSV NHBE EC50 (RSV A2 antiviral assay in normal human bronchial epithelial cells); conditions: human respiratory syncytial virus, 96 h, NHBE cells, RSV A2, 4 days, read-out: RSV NHBE EC50
HRV16 = HRV16 HELA EC50 (cytopathic effect in H1-HeLa cells)
Summary of the method: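 Read-out is luminescent cell viability (CellTiter-Glo) after 96 h of infection at 33 °C, scaled between uninfected and infected-untreated wells. Before infection with titrated virus, compounds went onto H1-HeLa cells as triplicate 3-fold dilution series.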

RSV strain A2 = assay: RSV HEp-2 EC50 (infectious cytopathic cell protection assay); conditions: human respiratory syncytial virus, HEp-2 cells, RSV A2, 4 days, read-out: RSV HEp-2 EC50
Summary of the method: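 Percent inhibition of RSV-induced cytopathic effect came from remaining cell viability (CellTiter-Glo luminescence) after 4 days at 37° C. Compounds in 3-fold serial dilutions were exposed to an infectious mix of titered A2 virus and HEp-2 cells at 50,000/ml, with 0% and 100% inhibition control standards.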

[1] = 96 h, H1-HeLa cells, 33° C., read-out: HRV16 HELA EC50
[2] = H1-HeLa cells, 96 h, 33° C.; read-out: HRV16 HELA EC50

## COC(C)(C)COC(=O)[C@H](C)NP(=O)(OC[C@@]1(C#N)O[C@@H](c2ccc3c(N)ncnn23)[C@H](O)[C@@H]1O)Oc1ccccc1 (stereo partly drawn) [Example 164, 2-methoxy-2-methylpropyl ((((2R,3S,4R,5S)-5-(4-aminopyrrolo[2,1-f][1,2,4]triazin-7-yl)-2-cyano-3,4-dihydroxytetrahydrofuran-2-yl)methoxy)(phenoxy)phosphoryl)-L-alaninate]
DENV2 replicon; Huh-7 replicon cells, 48 hours
  EC50: > 50000 nM
RSV A2; NHBE
  EC50: 724 nM
HRV16; [1]
  EC50: 4000 nM
RSV strain A2; HEp-2, 96 h
  EC50: 1220 nM

## COC1CCC(OC(=O)[C@H](C)NP(=O)(OC[C@@]2(C#N)O[C@@H](c3ccc4c(N)ncnn34)[C@H](O)[C@@H]2O)Oc2ccccc2)CC1 (stereo partly drawn) [Example 165, 4-methoxycyclohexyl ((((2R,3S,4R,5S)-5-(4-aminopyrrolo[2,1-f][1,2,4]triazin-7-yl)-2-cyano-3,4-dihydroxytetrahydrofuran-2-yl)methoxy)(phenoxy)phosphoryl)alaninate]
DENV2 replicon; Huh-7 replicon cells, 48 hours
  EC50: > 100000 nM
RSV A2; NHBE
  EC50: 1610 nM
HRV16; [1]
  EC50: 11300 nM
RSV strain A2; HEp-2, 96 h
  EC50: 1940 nM

## N#C[C@]1(COP(=O)(NCCOC(=O)C2CCCCC2)Oc2ccccc2)O[C@@H](c2ccc3c(N)ncnn23)[C@H](O)[C@@H]1O (stereo partly drawn) [Example 166, 2-(((((2R,3S,4R,5S)-5-(4-aminopyrrolo[2,1-f][1,2,4]triazin-7-yl)-2-cyano-3,4-dihydroxytetrahydrofuran-2-yl)methoxy)(phenoxy)phosphoryl)amino)ethyl cyclohexane carboxylate]
DENV2 replicon; Huh-7 replicon cells, 48 hours
  EC50: 22100 nM
RSV A2; NHBE
  EC50: 624 nM
HRV16; [1]
  EC50: 336 nM
RSV strain A2; HEp-2, 96 h
  EC50: 83 nM

## C=CCO[C@H](COCCCCCCCCCCCCCCCCCC)COP(=O)(O)OC[C@@]1(C#N)O[C@@H](c2ccc3c(N)ncnn23)[C@H](O)[C@@H]1O [Example 167, (R)-2-(allyloxy)-3-(octadecyloxy)propyl (((2R,3S,4R,5S)-5-(4-aminopyrrolo[2,1-f][1,2,4]triazin-7-yl)-2-cyano-3,4-dihydroxytetrahydrofuran-2-yl)methyl) hydrogen phosphate]
DENV2 replicon
  EC50: > 100000 nM
RSV A2
  EC50: 359 nM
HRV16; [2]
  EC50: 12000 nM
RSV strain A2; 96 h
  EC50: 647 nM

## C[C@H](N[P@](=O)(OC[C@@]1(C#N)O[C@@H](c2ccc3c(N)ncnn23)[C@@H]2OC(=O)O[C@@H]21)Oc1ccccc1)C(=O)OC1CCCCC1 [Example 168, cyclohexyl ((S)-(((3aS,4R,6S,6aS)-6-(4-aminopyrrolo[2,1-f][1,2,4]triazin-7-yl)-4-cyano-2-oxotetrahydrofuro[3,4-d][1,3]dioxol-4-yl)methoxy)(phenoxy)phosphoryl)-L-alaninate]
DENV2 replicon; Huh-7 replicon cells, 48 hours
  EC50: 4670 nM
RSV A2; NHBE
  EC50: 103 nM
HRV16; [1]
  EC50: 160 nM
RSV strain A2; HEp-2, 96 h
  EC50: 53 nM

## C[C@H](NP(=O)(OC[C@@]1(C#N)O[C@@H](c2ccc3c(N)ncnn23)[C@H](O)[C@@H]1O)Oc1ccccc1)C(=O)OC1CCCCCCC1 (stereo partly drawn) [Example 171, cyclooctyl ((((2R,3S,4R,5S)-5-(4-aminopyrrolo[2,1-f][1,2,4]triazin-7-yl)-2-cyano-3,4-dihydroxytetrahydrofuran-2-yl)methoxy)(phenoxy)phosphoryl)-L-alaninate]
DENV2 replicon; Huh-7 replicon cells, 48 hours
  EC50: 31500 nM
RSV A2; NHBE
  EC50: 375 nM
HRV16; [1]
  EC50: 582 nM
RSV strain A2; HEp-2, 96 h
  EC50: 220 nM

## CC(C)COC(=O)OCCNP(=O)(OC[C@@]1(C#N)O[C@@H](c2ccc3c(N)ncnn23)[C@H](O)[C@@H]1O)Oc1ccccc1 (stereo partly drawn) [Example 177, 2-(((((2R,3S,4R,5S)-5-(4-aminopyrrolo[2,1-f][1,2,4]triazin-7-yl)-2-cyano-3,4-dihydroxytetrahydrofuran-2-yl)methoxy)(phenoxy)phosphoryl)amino)ethyl isobutyl carbonate]
DENV2 replicon; Huh-7 replicon cells, 48 hours
  EC50: > 50000 nM
RSV A2; NHBE
  EC50: 1560 nM
HRV16; [1]
  EC50: 1160 nM
RSV strain A2; HEp-2, 96 h
  EC50: 104 nM

## C[C@H](NP(=O)(N[C@@H](C)C(=O)OCC(C)(C)C)OC[C@@]1(C#N)O[C@@H](c2ccc3c(N)ncnn23)[C@H](O)[C@@H]1O)C(=O)OCC(C)(C)C [Example 182]
DENV2 replicon
  EC50: > 50000 nM
RSV A2
  EC50: 2090 nM
HRV16; [2]
  EC50: 8560 nM
RSV strain A2; 96 h
  EC50: 1170 nM

## C[C@H](NP(=O)(OC[C@@]1(C#N)O[C@@H](c2ccc3c(N)ncnn23)[C@H](O)[C@@H]1O)Oc1ccccc1)C(=O)OC1CCC(C)(C)CC1 (stereo partly drawn) [Example 183, 4,4-dimethylcyclohexyl ((((2R,3S,4R,5S)-5-(4-aminopyrrolo[2,1-f][1,2,4]triazin-7-yl)-2-cyano-3,4-dihydroxytetrahydrofuran-2-yl)methoxy)(phenoxy)phosphoryl)-L-alaninate]
DENV2 replicon; Huh-7 replicon cells, 48 hours
  EC50: 17300 nM
RSV A2; NHBE
  EC50: 1200 nM
HRV16; [1]
  EC50: 173 nM
RSV strain A2; HEp-2, 96 h
  EC50: 80 nM

## CC(=O)N1CCC(OC(=O)C(C)NP(=O)(OC[C@@]2(C#N)O[C@@H](c3ccc4c(N)ncnn34)[C@H](O)[C@@H]2O)Oc2ccccc2)CC1 (stereo partly drawn) [Example 185, 1-acetylpiperidin-4-yl ((((2R,3S,4R,5S)-5-(4-aminopyrrolo[2,1-f][1,2,4]triazin-7-yl)-2-cyano3,4-dihydroxytetrahydrofuran-2-yl)methoxy)(phenoxy)phosphoryl)alaninate]
DENV2 replicon; Huh-7 replicon cells, 48 hours
  EC50: > 100000 nM
RSV A2; NHBE
  EC50: > 5000 nM
HRV16; [1]
  EC50: > 80200 nM
RSV strain A2; HEp-2, 96 h
  EC50: 7940 nM

## C[C@H](NP(=O)(OC[C@@]1(C#N)O[C@@H](c2ccc3c(N)ncnn23)[C@H](O)[C@@H]1O)Oc1ccccc1)C(=O)O[C@H]1CC[C@H](c2ccccc2)CC1 (stereo partly drawn) [Example 186, trans-4-phenylcyclohexyl ((((2R,3S,4R,5S)-5-(4-aminopyrrolo[2,1-f][1,2,4]triazin-7-yl)-2-cyano-3,4-dihydroxytetrahydrofuran-2-yl)methoxy)(phenoxy)phosphoryl)-L-alaninate]
DENV2 replicon; Huh-7 replicon cells, 48 hours
  EC50: 60300 nM
RSV A2; NHBE
  EC50: 70 nM
HRV16; [1]
  EC50: 4750 nM
RSV strain A2; HEp-2, 96 h
  EC50: 2770 nM

## CCCCCCCCCCCCCCCCOCCCNP(=O)(OC[C@@]1(C#N)O[C@@H](c2ccc3c(N)ncnn23)[C@H](O)[C@@H]1O)Oc1ccccc1 (stereo partly drawn) [Example 187, ((2R,3S,4R,5S)-5-(4-aminopyrrolo[2,1-f][1,2,4]triazin-7-yl)-2-cyano-3,4-dihydroxytetrahydrofuran-2-yl)methyl phenyl (3-(hexadecyloxy)propyl)phosphoramidate]
DENV2 replicon; Huh-7 replicon cells, 48 hours
  EC50: 9350 nM
RSV A2; NHBE
  EC50: > 5000 nM
HRV16; [1]
  EC50: 20600 nM
RSV strain A2; HEp-2, 96 h
  EC50: 1480 nM

## CCCCCCCCCCCCCCCCCCOC[C@H](COC(=O)C(C)NP(=O)(OC[C@@]1(C#N)O[C@@H](c2ccc3c(N)ncnn23)[C@H](O)[C@@H]1O)Oc1ccccc1)OCc1ccccc1 (stereo partly drawn) [Example 190, (R)-2-(benzyloxy)-3-(octadecyloxy)propyl ((((2R,3S,4R,5S)-5-(4-aminopyrrolo[2,1-f][1,2,4]triazin-7-yl)-2-cyano3,4-dihydroxytetrahydrofuran-2-yl)methoxy)(phenoxy)phosphoryl)alaninate]
DENV2 replicon; Huh-7 replicon cells, 48 hours
  EC50: > 100000 nM
RSV A2; NHBE
  EC50: 2060 nM
HRV16; [1]
  EC50: 2640 nM
RSV strain A2; HEp-2, 96 h
  EC50: 136 nM

## CCCCCCCCCCCCCCCCCCOC(=O)[C@H](C)NP(=O)(OC[C@@]1(C#N)O[C@@H](c2ccc3c(N)ncnn23)[C@H](O)[C@@H]1O)Oc1ccccc1 (stereo partly drawn) [Example 193, octadecyl ((((2R,3S,4R,5S)-5-(4-aminopyrrolo[2,1-f][1,2,4]triazin-7-yl)-2-cyano-3,4-dihydroxytetrahydrofuran-2-yl)methoxy)(phenoxy)phosphoryl)-L-alaninate]
DENV2 replicon; Huh-7 replicon cells, 48 hours
  EC50: > 50000 nM
RSV A2; NHBE
  EC50: 469 nM
HRV16; [1]
  EC50: 750 nM
RSV strain A2; HEp-2, 96 h
  EC50: 244 nM
